Measurements as given in article PMC5733122, “Purification, Characterization, and Mode of Action of Pentocin JL-1, a Novel Bacteriocin Isolated from Lactobacillus pentosus, against Drug-Resistant Staphylococcus aureus” (BioMed Research International, 2017).

Experiments:
[1] = test system: Lactobacillus acidophilus ATCC314; experiment: Agar-well diffusion test; assay type: cell-based
Description: (§1) The intestinal tracts of C. punctatum (grey carpet shark) were dissected and homogenized in 20 mL saline solution under sterile conditions and were then plated in serial dilutions in deMan, Rogosa, and Sharpe (MRS) medium. The plates were incubated aerobically at 30°C for 24 h. Several colonies were picked at random and incubated again in MRS broth. For screening for bacteriocin-producing strains, the agar-well diffusion test was used to detect antimicrobial activity in cell-free supernatants (filtered through a 0.22 μm Millipore filter) obtained by centrifugation (10,000g, 30 min, 4°C) after 18, 36, 60, and 72 h incubation. The Gram-positive strain MRSA GIM 1.771 and the Gram-negative strain Escherichia coli O157:H7 GIM 1.707 were used as indicator strains. Before the experiments, the indicator strains were grown to 10^6 CFU/mL. Then, 1 mL of the culture was mixed with 100 mL soft agar medium and poured onto individual Petri dishes. Subsequently, 8 mm diameter wells were punched onto the plates, and each well was filled with 100 μL of the cell-free supernatants under sterile conditions. The plates were incubated overnight at their respective optimum temperatures, and the clear zones of inhibition were measured in diameter and indicated the presence of antimicrobial activity. In our study, all bacteria culture media and chemical reagents were supplied by Sigma-Aldrich (USA).
(§2) The agar-well diffusion test as described previously was used to detect the antimicrobial activity of the purified pentocin JL-1 (15 μg/mL, pH 5.5). LAB strains were grown in MRS broth at 30°C for 16 h. Other Gram-positive indicator strains were grown in Tryptone Soy Broth (TSB) medium at 37°C and the Gram-negative indicator strains were grown in Luria-Bertani broth medium at 37°C.

[2] = test system: Lactobacillus casei ATCC393; experiment: Agar-well diffusion test; assay type: cell-based; settings: purified pentocin JL-1 15 μg/mL, pH 5.5, inhibition zone diameter class incl. 8 mm well
Description: as §1, §2

[3] = test system: Multidrug-resistant S. aureus 1; experiment: Agar-well diffusion test; assay type: cell-based; settings: 15 μg/mL, pH 5.5, pork isolate resistant to FOX, TET, mean ± SD, triplicate
Description: as §1, §2

[4] = test system: Multidrug-resistant S. aureus 2; experiment: Agar-well diffusion test; assay type: cell-based; settings: 15 μg/mL, pH 5.5, pork isolate resistant to FOX, GEN, mean ± SD, triplicate
Description: as §1, §2

[5] = test system: MRSA GIM1.771; experiment: Agar-well diffusion test; assay type: cell-based, Staphylococcus aureus; settings: pH 5.5
Description: as §1, §2
(§3) The residual antibacterial activities of the above samples were calculated using the agar-well diffusion test with MRSA GIM 1.771 as the indicator strain. […] Lyophilized pentocin JL-1 dissolved in 0.05% (w/v) acetic acid at 15 μg/mL with pH 5.5 was used as a control in all assays.

[6] = test system: MRSA GIM 1.771; experiment: Minimal inhibitory concentration (MIC), 96-well microtiter plates; assay type: cell-based, Staphylococcus aureus; settings: around 2 × 10^6 CFU/mL, 37°C, 24 h, 100% growth inhibition by absorbance at 540 nm, triplicate
Description: Additionally, the minimal inhibitory concentration (MIC) of pentocin JL-1 against MRSA GIM 1.771 was tested. Overnight culture of MRSA GIM 1.771 with the concentration of around 2 × 10^6 CFU/mL was collected and 50 μL of each was grown in 96 well-microtiter plates (Bio-Rad, USA) with different concentrations of pentocin JL-1, ranging from 50 ng/mL to 15 μg/mL, at 37°C for 24 h. Each concentration was done in triplicate. The MIC represents the bacteriocin concentration at which 100% of growth is inhibited measured by the absorbance at 540 nm.

[7] = target: T1, proteinase K (Parengyodontium album, UniProt P06873); experiment: Enzymatic sensitivity, residual antibacterial activity; assay type: in vitro ADME; settings: 1 h
T1 construct: purchased Sigma-Aldrich
Description: […] After incubation for 1 h, the bacteriocin-enzyme mixture was boiled for 5 min to inactivate the enzymes.
as §3

[8] = test system: MRSA GIM 1.771; experiment: Time-killing kinetics, viable cell counts; assay type: cell-based, Staphylococcus aureus; settings: for instantaneous killing action, log10 reduction: at 0 h, viable cell counts on TSB agar, exponential-phase culture, 37°C
Description: (§4) The bacteriostatic or bactericidal mode of action of pentocin JL-1 was tested as described previously by Zhu et al. with some modifications. MRSA GIM 1.771 was cultivated to the exponential phase in 100 mL of TSB culture medium. The lyophilized purified pentocin JL-1 dissolved in 0.05% (w/v) acetic acid was added to the cultures at a final concentration of 1x MIC and the same volume of 0.05% (w/v) acetic acid was added to the aforementioned media as a control. Samples were incubated at 37°C and bacterial suspensions were taken each hour for 24 h, and the absorbance was measured at OD600. In addition, the viable cell counts on TSB agar medium after the addition of 1x MIC, 2x MIC, and 3x MIC of pentocin JL-1 were also quantified every 10 min for 1 h.

[9] = test system: MRSA GIM 1.771 cells; experiment: Transmembrane pH gradient (ΔpH), BCECF AM fluorescence; assay type: cell-based, Staphylococcus aureus; settings: 1x MIC and 2x MIC, compared with 1% Triton X-100, 400 s
Description: ΔpH was monitored by the fluorescent pH probe 2′,7′-bis-(2-carboxyethyl)-5-(and-6)-carboxyfluorescein, acetoxymethyl ester (BCECF AM) (Beyotime, China). MRSA GIM 1.771 cells were grown to the exponential phase in 50 mL TSB culture medium, harvested, washed twice with 50 mL 5 mM HEPES buffer at 4°C, and resuspended in 5 mL of the same buffer for incubation on ice for 1 h. Subsequently, the 1 μM BCECF AM pH probe was added and the solution was incubated at 37°C for 1 h in the dark. Then 1 mL of the incubated solution was added to a fluorescence cuvette together with a final concentration of 1x, 2x, and 3x MIC of pentocin JL-1, respectively. Acetic acid (0.05%, w/v) was used as a negative control and 1% (w/v) Triton X-100 was used as a positive control. To the control, an equivalent volume of 3x MIC of pentocin JL-1 was added. The fluorescence intensity was monitored at 50 s intervals for 400 s immediately after mixing at Ex 488 nm and Em 535 nm using an F-4600 spectrofluorometer (Hitachi, Japan).

[10] = test system: MRSA GIM 1.771; experiment: Growth curve, OD600; assay type: cell-based, Staphylococcus aureus; settings: 1x MIC added after 6 h (exponential phase), TSB, 37°C, 24 h
Description: as §4

T1 sequence (P06873 106-384): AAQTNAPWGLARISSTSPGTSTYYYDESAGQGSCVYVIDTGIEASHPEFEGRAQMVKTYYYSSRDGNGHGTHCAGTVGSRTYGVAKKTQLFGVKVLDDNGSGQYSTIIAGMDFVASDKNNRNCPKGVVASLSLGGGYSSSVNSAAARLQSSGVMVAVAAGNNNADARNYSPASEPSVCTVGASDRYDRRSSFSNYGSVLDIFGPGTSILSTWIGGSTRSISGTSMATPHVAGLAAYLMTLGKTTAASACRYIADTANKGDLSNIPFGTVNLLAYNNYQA

“VAKVAR [pentocin JL-1, novel bacteriocin produced by Lactobacillus pentosus JL-1, purified by four-step chromatography, molecular mass 2987.23 Da, cationic and hydrophobic peptide]” was tested, and the “inhibitory activity” value ([1]; 15 μg/mL, pH 5.5) was “no inhibitory activity”, the Antimicrobial activity ([1]; purified pentocin JL-1 15 μg/mL, pH 5.5, inhibition zone diameter class incl. 8 mm well) was “−” and the Antimicrobial activity [2] was “+++ (+++: 20–25)”. For the same substance, the Inhibitor zone [3] was 23.8 ± 0.8 mm, the Inhibitor zone [4] was 22.5 ± 1.2 mm and the “Residual inhibitory activity (%)” value ([5]; Control: untreated pentocin JL-1 15 μg/mL in 0.05% (w/v) acetic acid) was 100.00%. The “Residual inhibitory activity (inhibition zone diameter, mm)” value ([5]; Control: untreated pentocin JL-1 15 μg/mL in 0.05% (w/v) acetic acid, mean ± SD, triplicate) was 23.9 ± 0.7 mm, the Antimicrobial activity ([5]; agar-well diffusion, purified pentocin JL-1 15 μg/mL, inhibition zone diameter class incl. 8 mm well) was “+++ (+++: 20–25)” and the MIC [6] was 7.5 µg/mL. For the same substance, the “Residual inhibitory activity (inhibition zone diameter, mm)” value ([7]; Proteinase K 75 μg/mL (pH 7.5, 55°C), then boiled 5 min, pentocin JL-1 15 μg/mL, agar-well diffusion vs MRSA GIM 1.771, mean ± SD, triplicate) was 17.3 ± 1.2 mm, the “Residual inhibitory activity (%)” value ([7]; Proteinase K 75 μg/mL (pH 7.5, 55°C), pentocin JL-1 15 μg/mL, vs MRSA GIM 1.771, relative to control) was 72.38^∗ % and the “inhibitory action after enzyme treatment” value ([7]; proteinase K 75 μg/mL, p < 0.05) was “significantly reduced”. For the same substance, the “instantaneous killing action, log10 reduction” value ([8]; 1x MIC) was 1.05 log10, the “mode of action (bacteriostatic or bactericidal)” value ([8]; 1x, 2x, 3x MIC, viable counts over 1 h) was “bactericidal” and the “instantaneous killing action, log10 reduction” value ([8]; 2x MIC) was 2.14 log10. For the same substance, the “instantaneous killing action, log10 reduction” value ([8]; 3x MIC) was 2.21 log10, the “extent of ΔpH dissipation” value [9] was “incompletely dissipated” and the “OD600 values after addition” value [10] was “nearly stable”.
